Results on one molecule are retold here after article PMC7279487, “Dual Target Ligands with 4-tert-Butylphenoxy Scaffold as Histamine H3 Receptor Antagonists and Monoamine Oxidase B Inhibitors” (International Journal of Molecular Sciences, 2020).

The subject of assay [1] is neuroblastoma SH-SY5Y cells. Nature of the assay: neuroprotection in H2O2-treated SH-SY5Y cells (MTS). The format is cell-based. The following applies: H2O2 300 µM, 24 h. As for the experimental part:
The used reference cytostatic drug doxorubicin (DX) decreased cell viability <50% under the same conditions at very low concentrations of 0.2 and 0.05 µM. […] Oxidative damage was induced by very high toxic levels of hydrogen peroxide (H2O2; 300 µM), the popular cell model for PD research, in neuroblastoma SH-SY5Y cell line. […] Salsolinol (SAL) was used at a concentration of 50 µM as the reference compound with the proven neuroprotection activity.
SH-SY5Y cells were seeded in microplate at a concentration of 2.5 × 10^4 cells/well in 100 μL culture medium and cultured for 24 h at 37 C and 5% CO2 to reach 70% confluence. […] (R,S)-salsolinol (purity ≥ 99%) was obtained from Cayman Chemical (Ann Arbor, MI, USA). Next, H2O2 was added at final concentration 300 μM and the cells were placed into the incubator. After 24 h of compounds co-incubation with H2O2, the CellTiter 96®AQueous Non-Radioactive Cell Proliferation Assay (MTS) labeling mixture was added to each well, and the microplates were incubated under the same conditions for 5 h. The absorbance was measured using a microplate reader EnSpire (PerkinElmer, Waltham, MA USA) at 490 nm. All measurements were performed in triplicate, and results are shown as mean ± SD.

For assay [2], the system named is haloperidol-induced catalepsy. Put plainly: haloperidol-induced catalepsy, bar test. Format: in vivo, Wistar rats. The note with it: for Times of Observation of Catalepsy (s), 0 min / Times of Observation of Catalepsy (s), 3 min / Times of Observation of Catalepsy (s), 6 min: mean ± SEM (n = 6). As to the method:
Haloperidol (dopamine D2 antagonist)-induced catalepsy in rodents is a popular model for screening of antiparkinsonian activity of compounds [21]. Caused symptoms in animals are similar to the inability of PD patients to initiate movements. […] The reversal of catalepsy was tested for 6 min (3 times in 3 min intervals) after 1 h of haloperidol administration. As the reference compound was used MSX-3, the adenosine A2A receptor antagonist with confirmed ability to reverse catalepsy mediated by D1 and D2 receptor antagonists.
Haloperidol-induced catalepsy was not reduced by DL-76 administrated at a dose of 25 mg/kg body weight (Table 3). After administration of DL-76 at a dose of 50 mg/kg body weight, low antiparkinsonian activity in the bar test was observed. […] This effect was weaker than the anti-Parkisonian activity of MSX-3.
The experiments were carried out on male rats Wistar (180–220 g). Animals were housed in plastic cages in room at a constant temperature of 20 ± 2 °C with natural light–dark cycles. The animals had free access to standard pellet diet and water and were used after a minimum of 3 days of acclimatization to the housing conditions. Control and experimental groups consisted of 6 animals each. All experimental procedures were performed according to the European Union Directive of 22 September 2010 (2010/63/EU) and Polish legislation concerning animal care and use and was approved by the Local Ethics Committee for Experiments on Animals in Kraków, Poland (Resolution No. 70/2014, approval date: 20 May 2014). The examined compound was administered as the suspension in 0.5% methylcellulose in constant volume of 10 mL/kg.
Antiparkinsonian activity in catalepsy tests was performed as described in [28]. Haloperidol was administered s.c. at a dose of 0.63 mg/kg, which in 100% of control animals caused catalepsy. Tested compounds were administered i.p. at the doses 50 and 25 mg/kg body weight, 5 min after haloperidol injection. After 60 min from the injection of haloperidol, to assess the occurrence of catalepsy, the animals were placed in a forced position and the time they remained in this position was measured. Two tests were performed to determine the antiparkinsonian activity: crossed leg position test and bar test. In the first test, the animals were put on the hind paws behind the front (forced position); in the second, the animals were supported on a wooden block (the front paws were placed on a block suspended 10 cm above the ground). Then, the time that the animals remain is measured in a forced position (time was measured to a maximum of 60 s). Observation was carried out 3 times in 3-min intervals. The shortening of the time of catalepsy to the control group was adopted for the antiparkinsonian activity.

In the case of `CC(C)(C)c1ccc(OCCCN2CCCCC2)cc1` [DL76, 1-(3-(4-tert-butylphenoxy)propyl)piperidine], the “cell survival of H2O2-damaged SH-SY5Y cells (neuroprotection)” value in assay [1] (10 µM) is on record as “no increase of cell survival”. For the same molecule, the “cell survival of H2O2-damaged SH-SY5Y cells (neuroprotection)” value in assay [1] (50 µM) is “no increase of cell survival”. Further, in assay [2] (25 mg/kg body weight), the “reduction of haloperidol-induced catalepsy” value is given as “not reduced”. Moreover, in assay [2] (25 mg/kg i.p.), the “Times of Observation of Catalepsy (s), 0 min” value turned out to be 19.5 ± 4.2 s; the “Times of Observation of Catalepsy (s), 3 min” value is on record as 26.5 ± 3.5 s; the “Times of Observation of Catalepsy (s), 6 min” value is on record as 30.0 ± 0 s. Also, in assay [2] (50 mg/kg body weight), the “duration of catalepsy (versus control 25.8)” value was determined as 16.4 and the “reduction of the duration of catalepsy compared to the control group” value was 36.4%. Moreover, in assay [2] (50 mg/kg i.p.), the “Times of Observation of Catalepsy (s), 0 min” value came out at 13.8 ± 5.9 s; the “Times of Observation of Catalepsy (s), 3 min” value worked out at 13.5 ± 4.2 s; the “Times of Observation of Catalepsy (s), 6 min” value was 22.0 ± 5.0 s.
